The values below come from patent US12285440B2, “APOE4 impairs myelination via altered cholesterol biosynthesis and transport in oligodendroglia” (Massachusetts Institute of Technology, priority 2021, dated 2025).

One assay has as its system iMGLs. Briefly: Calcium imaging of Fluo-4 AM labeled iMGLs with compound uncaging. It counts as cell-based, human. The conditions noted are these: 1 mM Caged NMDA or 1 mM Caged Glutamate, uncaging at 405 nm.
Assay [1] deals with APOE4 iPSC-derived oligodendroglia. Briefly: APOE oligodendroglia drug treatment, bodipy-cholesterol and bodipy lipid droplet staining. The following applies: APOE4 oligodendroglia treated two weeks (Atorvastatin 1 μM, Simvastatin 1 μM, Cyclodextrin 10 mM); compared with APOE3/3 oligodendroglia. The format is cell-based, human. As for the experimental part: It was reasoned that inhibiting cholesterol biosynthesis and/or facilitating cholesterol transport in APOE4 oligodendrocytes may reduce intracellular accumulation and improve myelination.
Cells were plated onto a Millipore eight-chamber glass slide, at a density of 250,000 cells per well. Cells were then cultured in Neurobasal media, supplemented with PDGFR-α, NT3 and β-FGF. […] Cells were fixed with 4% PFA, and stained for Bodipy-cholesterol, WGA-555 and DAPI.

As for `CN[C@H](CC(=O)O)C(=O)O` [NMDA], the “amplitude of calcium transients upon uncaging” value with iMGLs is reported as “increase the amplitude of calcium transients”. Consider `CC(C)c1c(C(=O)Nc2ccccc2)c(-c2ccccc2)c(-c2ccc(F)cc2)n1CC[C@@H](O)C[C@@H](O)CC(=O)O` [atorvastatin], for which the total bodipy-cholesterol staining entry in assay [1] was “significantly (p=0.0085 and 0.0450) higher than APOE3/3 oligodendroglia”. Take `N[C@@H](CCC(=O)O)C(=O)O` [glutamate]: the “amplitude of calcium transients upon uncaging” value in the assay on iMGLs is “increase the amplitude of calcium transients”.
